This passage reports Ki results from ChEMBL document CHEMBL1137916, “5-Amidinoindoles as dual inhibitors of coagulation factors IXa and Xa” (Bioorg Med Chem Lett, 2004).

Experiment [1] has as its target Coagulation factor X (Homo sapiens, UniProt P00742). Description: Binding affinity towards human factor Xa.
For experiment [2], the target named is Coagulation factor IX (Homo sapiens, UniProt P00740). The experiment is described as follows: Binding affinity towards human factor IXa.
Coagulation factor IX, sequence (P00740 47-191 limits assumed): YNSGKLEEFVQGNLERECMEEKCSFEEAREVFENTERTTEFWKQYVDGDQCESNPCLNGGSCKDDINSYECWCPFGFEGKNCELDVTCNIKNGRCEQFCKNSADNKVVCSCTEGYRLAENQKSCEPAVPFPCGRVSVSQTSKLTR
Coagulation factor IX, sequence (P00740 227-461 limits assumed): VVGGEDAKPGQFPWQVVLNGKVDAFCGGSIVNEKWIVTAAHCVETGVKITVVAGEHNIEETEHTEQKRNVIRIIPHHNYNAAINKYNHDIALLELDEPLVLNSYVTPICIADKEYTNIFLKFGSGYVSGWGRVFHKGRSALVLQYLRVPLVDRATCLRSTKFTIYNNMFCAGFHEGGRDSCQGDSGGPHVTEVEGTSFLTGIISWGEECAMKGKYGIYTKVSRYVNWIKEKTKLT

Coagulation factor X, sequence (P00742 41-179 limits assumed): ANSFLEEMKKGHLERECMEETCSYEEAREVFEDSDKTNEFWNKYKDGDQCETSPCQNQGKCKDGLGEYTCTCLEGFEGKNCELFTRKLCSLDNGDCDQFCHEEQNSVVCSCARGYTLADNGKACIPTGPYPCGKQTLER
Coagulation factor X, sequence (P00742 235-488 limits assumed): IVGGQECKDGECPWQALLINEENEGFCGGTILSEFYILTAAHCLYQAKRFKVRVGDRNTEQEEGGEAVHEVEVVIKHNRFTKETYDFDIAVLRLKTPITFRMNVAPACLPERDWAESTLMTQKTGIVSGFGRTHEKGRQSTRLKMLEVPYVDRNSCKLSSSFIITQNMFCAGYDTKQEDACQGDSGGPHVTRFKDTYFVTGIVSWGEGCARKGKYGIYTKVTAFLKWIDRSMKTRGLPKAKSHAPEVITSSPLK

A word on the Ki: it is the dissociation constant of the complex between target and ligand, obtained from inhibition or displacement. Lower therefore signals a stronger hold on the target. With `N=C(N)c1ccc2[nH]cc(CC(=O)Nc3ccc(-c4ccccc4S(N)(=O)=O)cc3)c2c1`, the Ki in experiment [1] was 3.2 nM; in experiment [2], 6700 nM.

Consider `N=C(N)c1ccc2[nH]cc(C(CC(=O)Nc3ccc(-n4cnc5ccccc54)cc3)Cc3ccccc3)c2c1` (stereo not given), for which the Ki in experiment [1] came to 36 nM; in experiment [2], 250 nM.

For the compound `CC(C(=O)Nc1ccc(-n2cnc3ccccc32)cc1)c1c[nH]c2ccc(C(=N)N)cc12` (stereo not given), the Ki in experiment [1] turned out to be 3 nM; in experiment [2], 480 nM.

On to `N=C(N)c1ccc2[nH]cc(C(Cc3ccccc3)C(=O)NCc3ccc(-n4cnc5ccccc54)cc3)c2c1` (stereo not given), for which the Ki was determined as 72 nM in experiment [1] and 310 nM in experiment [2].

In the case of `Cn1cc(C(Cc2ccccc2)C(=O)Nc2ccc(-n3cnc4ccccc43)cc2F)c2cc(C(=N)N)ccc21` (stereo not given), the Ki was 160 nM in experiment [1] and 360 nM in experiment [2].

Take `N=C(N)c1ccc2[nH]cc(C(CCc3ccccc3)C(=O)Nc3ccc(-n4cnc5ccccc54)cc3F)c2c1` (stereo not given): the Ki in experiment [1] was 6.1 nM; in experiment [2], 240 nM.

Consider `N=C(N)c1ccc2[nH]cc(C(Cc3ccc4ccccc4c3)C(=O)Nc3ccc(-n4cnc5ccccc54)cc3F)c2c1` (stereo not given), for which the Ki in experiment [1] was determined as 28 nM; in experiment [2], 98 nM.

In the case of `N=C(N)c1ccc2[nH]cc(C(Cc3ccc(N)cc3)C(=O)Nc3ccc(-n4cnc5ccccc54)cc3)c2c1` (stereo not given), the Ki in experiment [1] was found to be 4 nM; in experiment [2], 75 nM.

Turning to `N=C(N)c1ccc2[nH]cc(C(Cc3ccccc3)C(=O)Nc3ccc(-n4cnc(-c5ccccc5)c4)cc3)c2c1` (stereo not given), the figures for the Ki in experiment [1] and in experiment [2] were 79 nM and 270 nM, respectively.

Regarding `N=C(N)c1ccc2[nH]cc([C@H](Cc3ccccc3)C(=O)Nc3ccc(-n4cnc5ccccc54)cc3F)c2c1`, the Ki was found to be 26 nM in experiment [1] and 820 nM in experiment [2].

For the compound `N=C(N)c1ccc2[nH]cc([C@@H](Cc3ccccc3)C(=O)Nc3ccc(-n4cnc5ccccc54)cc3F)c2c1`, the Ki in experiment [1] came to 1.3 nM; in experiment [2] it was 19 nM.

As to `N=C(N)c1ccc2[nH]cc(C(Cc3ccccc3)C(=O)NCc3ccc(C(=O)Nc4nc5ccccc5[nH]4)cc3)c2c1` (stereo not given), the Ki turned out to be 810 nM in experiment [1] and 930 nM in experiment [2].

As for `N=C(N)c1ccc2[nH]cc(C(Cc3ccccc3)C(=O)Nc3ccc(-c4ccccc4S(N)(=O)=O)cc3)c2c1` (stereo not given), the Ki was determined as 0.63 nM in experiment [1] and 660 nM in experiment [2].

Take `N=C(N)c1ccc2[nH]cc(CC(Cc3ccccc3)C(=O)Nc3ccc(-n4cnc5ccccc54)cc3)c2c1` (stereo not given): the Ki is 45 nM in experiment [1] and 130 nM in experiment [2].

With `CS(=O)(=O)c1ccc2nc(NC(=O)c3ccc(CNC(=O)C(Cc4ccccc4)c4c[nH]c5ccc(C(=N)N)cc45)cc3)[nH]c2c1` (stereo not given), the Ki in experiment [1] stood at 1100 nM; in experiment [2] it was 660 nM.

With `N=C(N)c1ccc2[nH]cc(C(CC3CC3)C(=O)Nc3ccc(-n4cnc5ccccc54)cc3)c2c1` (stereo not given), the Ki turned out to be 14 nM in experiment [1] and 3800 nM in experiment [2].

Consider `N=C(N)c1ccc2[nH]cc(C(Cc3ccc(NC(=O)c4ccccc4)cc3)C(=O)Nc3ccc(-n4cnc5ccccc54)cc3)c2c1` (stereo not given), for which the Ki in experiment [1] was found to be 18 nM; in experiment [2], 270 nM.

Regarding `CCC(C(=O)Nc1ccc(-n2cnc3ccccc32)cc1)c1c[nH]c2ccc(C(=N)N)cc12` (stereo not given), the Ki turned out to be 2.8 nM in experiment [1] and 160 nM in experiment [2].

Take `N=C(N)c1ccc2[nH]cc(C(Cc3cccc(C(=O)O)c3)C(=O)Nc3ccc(-n4cnc5ccccc54)cc3F)c2c1` (stereo not given): the Ki is 1.8 nM in experiment [1] and 59 nM in experiment [2].

With `CC(C)(C(=O)Nc1ccc(-n2cnc3ccccc32)cc1)c1c[nH]c2ccc(C(=N)N)cc12`, the values for the Ki in experiment [1] and in experiment [2] were 2.2 nM and 750 nM, respectively.

Consider `N=C(N)c1ccc2[nH]cc(C(Cc3ccc(NS(=O)(=O)c4ccccc4)cc3)C(=O)Nc3ccc(-n4cnc5ccccc54)cc3)c2c1` (stereo not given), for which the results for the Ki in experiment [1] and in experiment [2] were 19 nM and 130 nM, respectively.

For `N=C(N)c1ccc2[nH]cc(C(Cc3cccnc3)C(=O)Nc3ccc(-n4cnc5ccccc54)cc3)c2c1` (stereo not given), the Ki turned out to be 7 nM in experiment [1] and 1200 nM in experiment [2].

For the compound `N=C(N)c1ccc2[nH]cc(C(Cc3ccccc3)C(=O)NCc3cccc(C(=O)Nc4nc5ccccc5[nH]4)c3)c2c1` (stereo not given), the Ki in experiment [1] is 2600 nM; in experiment [2], 1900 nM.

Take `N=C(N)c1ccc2ccn(C(Cc3ccccc3)C(=O)Nc3ccc(-n4cnc5ccccc54)cc3F)c2c1` (stereo not given): the Ki in experiment [1] stood at 5.6 nM; in experiment [2], 300 nM.

As for `N=C(N)c1ccc2[nH]cc(C(Cc3ccccc3)C(=O)Nc3ccc(-n4cnc5ccccc54)cc3F)c2c1` (racemic), the Ki in experiment [1] was found to be 2.5 nM; in experiment [2], 63 nM.
